Assay results reported in patent US10988477B2 (Merck Patent GmbH, priority 2018, dated 2021).

Experiments:
GCN2 kinase = GCN2 kinase (Homo sapiens, UniProt Q9P2K8); assay: GCN2 enzyme inhibition assay (Transcreener ADP2 fluorescence polarization); format: biochemical; details: compounds of Formula II; 280 μM ATP, 4 nM GCN2 kinase
How it was run: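 4 nM GCN2 + 200 μM (RS)7 + compound (0–8 μM), 10 min preinc.; start with ATP (280 μM final); 1 h, 25 °C; pH 7.5 Tris/NaCl/MgCl2/DTT; ADP FP readout; IC50, Ki(app) via tight-binding fit.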

[1] = biological target: intracellular GCN2 (phosphorylation of the GCN2 substrate eIF2α) (Homo sapiens, UniProt Q9P2K8); assay: GCN2 cellular inhibition assay (AlphaScreen SureFire P-eIF2α Ser51, borrelidin-treated U2OS cells); format: cell-based; details: compounds of Formula II; biomarker assay, phosphorylated eIF2α Ser51 in borrelidin-treated U2OS cells
Chain of intracellular GCN2 (phosphorylation of the GCN2 substrate eIF2α) (Q9P2K8 whole entry): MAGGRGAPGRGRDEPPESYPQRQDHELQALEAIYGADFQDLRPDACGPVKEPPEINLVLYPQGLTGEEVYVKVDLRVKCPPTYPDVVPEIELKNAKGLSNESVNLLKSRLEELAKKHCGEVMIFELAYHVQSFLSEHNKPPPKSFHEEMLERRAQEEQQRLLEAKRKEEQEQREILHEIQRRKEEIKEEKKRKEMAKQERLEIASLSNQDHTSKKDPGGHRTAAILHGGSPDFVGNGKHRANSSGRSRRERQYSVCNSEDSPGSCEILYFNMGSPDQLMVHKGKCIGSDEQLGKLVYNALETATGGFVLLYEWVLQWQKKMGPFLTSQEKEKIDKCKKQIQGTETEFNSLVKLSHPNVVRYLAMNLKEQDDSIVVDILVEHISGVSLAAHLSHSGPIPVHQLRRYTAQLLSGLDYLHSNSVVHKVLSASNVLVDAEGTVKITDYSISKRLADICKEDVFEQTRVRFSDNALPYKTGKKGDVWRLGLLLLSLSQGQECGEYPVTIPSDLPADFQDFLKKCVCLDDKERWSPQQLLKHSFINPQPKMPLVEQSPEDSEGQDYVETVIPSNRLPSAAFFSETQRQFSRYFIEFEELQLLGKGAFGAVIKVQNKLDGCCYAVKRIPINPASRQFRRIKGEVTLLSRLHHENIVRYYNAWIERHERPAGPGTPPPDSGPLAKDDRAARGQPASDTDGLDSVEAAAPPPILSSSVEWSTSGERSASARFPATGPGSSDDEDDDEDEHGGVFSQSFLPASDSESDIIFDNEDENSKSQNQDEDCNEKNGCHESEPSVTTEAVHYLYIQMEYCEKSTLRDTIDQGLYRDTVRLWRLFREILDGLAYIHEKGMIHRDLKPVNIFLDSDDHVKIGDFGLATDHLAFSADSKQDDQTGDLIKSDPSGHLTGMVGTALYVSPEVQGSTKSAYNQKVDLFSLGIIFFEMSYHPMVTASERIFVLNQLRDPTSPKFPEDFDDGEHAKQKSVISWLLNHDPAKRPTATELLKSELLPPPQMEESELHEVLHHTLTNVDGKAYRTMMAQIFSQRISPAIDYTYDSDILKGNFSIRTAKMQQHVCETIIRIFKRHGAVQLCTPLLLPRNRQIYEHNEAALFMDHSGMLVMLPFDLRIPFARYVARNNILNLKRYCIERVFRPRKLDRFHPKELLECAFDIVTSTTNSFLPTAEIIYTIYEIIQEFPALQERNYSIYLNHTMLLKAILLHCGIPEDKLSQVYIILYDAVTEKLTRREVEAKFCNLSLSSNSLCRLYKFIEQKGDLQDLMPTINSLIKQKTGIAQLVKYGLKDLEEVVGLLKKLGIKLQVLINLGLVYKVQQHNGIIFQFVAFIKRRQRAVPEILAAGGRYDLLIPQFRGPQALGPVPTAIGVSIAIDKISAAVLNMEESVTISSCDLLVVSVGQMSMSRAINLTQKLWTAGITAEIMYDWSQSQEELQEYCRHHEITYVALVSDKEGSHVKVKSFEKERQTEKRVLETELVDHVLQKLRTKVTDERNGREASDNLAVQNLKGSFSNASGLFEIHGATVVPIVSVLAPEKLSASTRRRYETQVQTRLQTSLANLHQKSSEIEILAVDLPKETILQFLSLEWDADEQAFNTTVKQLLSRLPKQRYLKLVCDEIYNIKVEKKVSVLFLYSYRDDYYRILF
How it was run: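 U2OS cells, adhered overnight, received compounds in 4-fold serial dilutions from 40 μM final, then 10 μM borrelidin for 1 h at 37 °C. Lysates were read by AlphaScreen for phospho-eIF2α Ser51; percent inhibition was set against borrelidin-only wells.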

Chain of GCN2 kinase (Q9P2K8 whole entry): as above

Compound	Ki (GCN2 kinase) [nM]	IC50 [1] [nM]
CS(=O)(=O)NCC1CCCN(c2cc(-c3cnc4ccc(C(F)F)nn34)cc(N3CCOCC3)n2)C1 (centres unmarked) [II-66, N-((1-(4-(6-(Difluoromethyl)imidazo[1,2-b]pyridazin-3-yl)-6-morpholinopyridin-2-yl)piperidin-3-yl)methyl)methanesulfonamide]	< 10	500 to 5000
CNc1cc(-c2cnc3ccc(C(F)F)nn23)cc(N2CCC[C@H](CNS(C)(=O)=O)C2)n1 [II-68, (S)—N-((1-(4-(6-(Difluoromethyl)imidazo[1,2-b]pyridazin-3-yl)-6-(methylamino)pyridin-2-yl)piperidin-3-yl)methyl)methanesulfonamide]	< 10	500 to 5000
CNc1cc(-c2cnc3ccc(C(F)F)nn23)cc(N2CCO[C@H](CNS(C)(=O)=O)C2)n1 [II-69, (S)—N-((4-(4-(6-(Difluoromethyl)imidazo[1,2-b]pyridazin-3-yl)-6-(methylamino)pyridin-2-yl)morpholin-2-yl)methyl)methanesulfonamide]	< 10	< 500
CN1CC2(C1)CN(c1cc(-c3cnc4ccc(C(F)F)nn34)cc(N3CCCC(CNS(C)(=O)=O)C3)n1)C2 (centres unmarked) [II-72, N-((1-(4-(6-(Difluoromethyl)imidazo[1,2-b]pyridazin-3-yl)-6-(6-methyl-2,6-diazaspiro[3.3]heptan-2-yl)pyridin-2-yl)piperidin-3-yl)methyl)methanesulfonamide]	< 10	< 500
CNCCOc1cc(-c2cnc3ccc(C(F)F)nn23)cc(N2CCCC(CNS(C)(=O)=O)C2)n1 (centres unmarked) [II-74, N-((1-(4-(6-(Difluoromethyl)imidazo[1,2-b]pyridazin-3-yl)-6-(2-(methylamino)ethoxy)pyridin-2-yl)piperidin-3-yl)methyl)methanesulfonamide]	< 10	500 to 5000
CC1CN(c2ccnc(-c3cnc4ccc(C(F)F)nn34)c2)CC(CNS(C)(=O)=O)C1(F)F (centres unmarked) [II-75, N-((1-(2-(6-(Difluoromethyl)imidazo[1,2-b]pyridazin-3-yl)pyridin-4-yl)-4,4-difluoro-5-methylpiperidin-3-yl)methyl)methanesulfonamide]	< 10	< 500
FC(F)c1ccc2ncc(-c3ccnc(N4CCOCC4)c3)n2n1 [II-76, 4-(4-(6-(Difluoromethyl)imidazo[1,2-b]pyridazin-3-yl)pyridin-2-yl)morpholine]	10 to 1000	> 5000
FC(F)c1ccc2ncc(-c3ccnc(N4CC5(CNC5)C4)c3)n2n1 [II-79, 3-(2-(2,6-Diazaspiro[3.3]heptan-2-yl)pyridin-4-yl)-6-(difluoromethyl)imidazo[1,2-b]pyridazine]	10 to 1000	> 5000
CS(=O)(=O)NCC1CCCN(c2cc(-c3cnc4ccc(C(F)F)nn34)cc(CN)n2)C1 (centres unmarked) [II-80, N-((1-(6-(Aminomethyl)-4-(6-(difluoromethyl)imidazo[1,2-b]pyridazin-3-yl)pyridin-2-yl)piperidin-3-yl)methyl)methanesulfonamide]	< 10	500 to 5000
CS(=O)(=O)NCC1CN(c2cc(-c3cnc4ccc(C(F)F)nn34)ccn2)CCN1C1COC1 (centres unmarked) [II-81, N-((4-(4-(6-(Difluoromethyl)imidazo[1,2-b]pyridazin-3-yl)pyridin-2-yl)-1-(oxetan-3-yl)piperazin-2-yl)methyl)methanesulfonamide]	10 to 1000	> 5000
CS(=O)(=O)NCC1CCCN(c2cc(-c3cnc4ccc(C(F)F)nn34)cc(OC3CNC3)n2)C1 (centres unmarked) [II-84, N-((1-(6-(Azetidin-3-yloxy)-4-(6-(difluoromethyl)imidazo[1,2-b]pyridazin-3-yl)pyridin-2-yl)piperidin-3-yl)methyl)methanesulfonamide]	< 10	500 to 5000
CS(=O)(=O)NCC1CCCN(c2cc(-c3cnc4ccc(C(F)F)nn34)cc(N3CC(O)C3)n2)C1 (centres unmarked) [II-85, N-((1-(4-(6-(Difluoromethyl)imidazo[1,2-b]pyridazin-3-yl)-6-(3-hydroxyazetidin-1-yl)pyridin-2-yl)piperidin-3-yl)methyl)methanesulfonamide]	< 10	500 to 5000
CS(=O)(=O)NCC1CCCN(c2cc(-c3cnc4ccc(C(F)F)nn34)cc(N3CC4(CCO4)C3)n2)C1 (centres unmarked) [II-86, N-((1-(4-(6-(Difluoromethyl)imidazo[1,2-b]pyridazin-3-yl)-6-(1-oxa-6-azaspiro[3.3]heptan-6-yl)pyridin-2-yl)piperidin-3-yl)methyl)methanesulfonamide]	< 10	500 to 5000
O=C1OCC2CN(c3cc(-c4cnc5ccc(C(F)F)nn45)ccn3)CCN12 (centres unmarked) [II-88, 7-(4-(6-(Difluoromethyl)imidazo[1,2-b]pyridazin-3-yl)pyridin-2-yl)tetrahydro-1H-oxazolo[3,4-a]pyrazin-3(5H)-one]	10 to 1000	500 to 5000
CS(=O)(=O)NCC1CN(c2cc(-c3cnc4ccc(C(F)F)nn34)ccn2)CCN1 (centres unmarked) [II-90, N-((4-(4-(6-(Difluoromethyl)imidazo[1,2-b]pyridazin-3-yl)pyridin-2-yl)piperazin-2-yl)methyl)methanesulfonamide]	10 to 1000	500 to 5000

Now from value to compound:

Ki (GCN2 kinase) [nM]	IC50 [1] [nM]	Compound
< 10	> 5000	CS(=O)(=O)NCC1CCCN(c2cc(-c3cnc4ccc(C(F)F)nn34)cc(C(F)(F)F)n2)C1 (centres unmarked) [II-63, N-((1-(4-(6-(Difluoromethyl)imidazo[1,2-b]pyridazin-3-yl)-6-(trifluoromethyl)pyridin-2-yl)piperidin-3-yl)methyl)methanesulfonamide]
< 10	< 500	CNc1cc(-c2cnc3ccc(C(F)F)nn23)cc(N2CC(C)C(F)(F)C(CNS(C)(=O)=O)C2)n1 (centres unmarked) [II-64, N-((1-(4-(6-(Difluoromethyl)imidazo[1,2-b]pyridazin-3-yl)-6-(methylamino)pyridin-2-yl)-4,4-difluoro-5-methylpiperidin-3-yl)methyl)methanesulfonamide]
< 10	500 to 5000	CNc1cc(-c2cnc3ccc(C(F)F)nn23)cc(N2CC(C)C(F)(F)C(CNS(C)(=O)=O)C2)n1 (centres unmarked) [II-65, N-((1-(4-(6-(Difluoromethyl)imidazo[1,2-b]pyridazin-3-yl)-6-(methylamino)pyridin-2-yl)-4,4-difluoro-5-methylpiperidin-3-yl)methyl)methanesulfonamide]
< 10	< 500	CS(=O)(=O)NCC1CCCN(c2cc(-c3cnc4ccc(C(F)F)nn34)cc(N3CC4(CCN4)C3)n2)C1 (centres unmarked) [II-67, N-((1-(4-(6-(Difluoromethyl)imidazo[1,2-b]pyridazin-3-yl)-6-(1,6-diazaspiro[3.3]heptan-6-yl)pyridin-2-yl)piperidin-3-yl)methyl)methanesulfonamide]
10 to 1000	> 5000	CS(=O)(=O)N1CCC12CCCN(c1cc(-c3cnc4ccc(C(F)F)nn34)ncn1)C2 (centres unmarked) [II-70, 6-(Difluoromethyl)-3-(6-(1-(methylsulfonyl)-1,6-diazaspiro[3.5]nonan-6-yl)pyrimidin-4-yl)imidazo[1,2-b]pyridazine]
< 10	500 to 5000	CNc1cc(-c2cnc3ccc(C(F)F)nn23)cc(N2CCC(F)(F)C(CNS(C)(=O)=O)C2)n1 (centres unmarked) [II-71, N-((1-(4-(6-(Difluoromethyl)imidazo[1,2-b]pyridazin-3-yl)-6-(methylamino)pyridin-2-yl)-4,4-difluoropiperidin-3-yl)methyl)methanesulfonamide]
10 to 1000	> 5000	CS(=O)(=O)NCC1CCCN(c2cc(-c3cnc4ccc(C(F)F)nn34)cnc2CN)C1 (centres unmarked) [II-73, N-((1-(2-(Aminomethyl)-5-(6-(difluoromethyl)imidazo[1,2-b]pyridazin-3-yl)pyridin-3-yl)piperidin-3-yl)methyl)methanesulfonamide]
10 to 1000	> 5000	O=S1(=O)CCN(c2cc(-c3cnc4ccc(C(F)F)nn34)ccn2)CC1 [II-77, 4-(4-(6-(Difluoromethyl)imidazo[1,2-b]pyridazin-3-yl)pyridin-2-yl)thiomorpholine 1,1-dioxide]
< 10	< 500	CC1CN(c2cc(-c3cnc4ccc(C(F)F)nn34)ccn2)CC(CNS(C)(=O)=O)C1(F)F (centres unmarked) [II-78, N-((1-(4-(6-(Difluoromethyl)imidazo[1,2-b]pyridazin-3-yl)pyridin-2-yl)-4,4-difluoro-5-methylpiperidin-3-yl)methyl)methanesulfonamide]
10 to 1000	500 to 5000	CS(=O)(=O)NCC1CCCN(c2cc(-c3cnc4ccc(C(F)F)nn34)ccc2C#N)C1 (centres unmarked) [II-82, N-((1-(2-Cyano-5-(6-(difluoromethyl)imidazo[1,2-b]pyridazin-3-yl)phenyl)piperidin-3-yl)methyl)methanesulfonamide]
< 10	500 to 5000	CS(=O)(=O)NCC1CCCN(c2cc(-c3cnc4ccc(C(F)F)nn34)cc(N3CC4(COC4)C3)n2)C1 (centres unmarked) [II-83, N-((1-(4-(6-(Difluoromethyl)imidazo[1,2-b]pyridazin-3-yl)-6-(2-oxa-6-azaspiro[3.3]heptan-6-yl)pyridin-2-yl)piperidin-3-yl)methyl)methanesulfonamide]
< 10	500 to 5000	CS(=O)(=O)NCC1CCCN(c2cncc(-c3cnc4ccc(C(F)F)nn34)c2)C1 (centres unmarked) [II-87, N-((1-(5-(6-(Difluoromethyl)imidazo[1,2-b]pyridazin-3-yl)pyridin-3-yl)piperidin-3-yl)methyl)methanesulfonamide]
< 10	500 to 5000	COCCNc1cc(-c2cnc3ccc(C(F)F)nn23)cc(N2CCCC(CNS(C)(=O)=O)C2)n1 (centres unmarked) [II-89, N-((1-(4-(6-(Difluoromethyl)imidazo[1,2-b]pyridazin-3-yl)-6-((2-methoxyethyl)amino)pyridin-2-yl)piperidin-3-yl)methyl)methanesulfonamide]
